Measurements as given in patent US20160287589A1, “SUBSTITUTED-IMIDAZOPYRIDAZINES” (BAYER PHARMA AKTIENGESELLSCHAFT, priority 2013, published 2016).

Tests used:
[1] = target: T1, MKNK1 (Homo sapiens, UniProt Q9BUB5, T385D); assay: MKNK1 kinase high ATP assay (TR-FRET-based); type: biochemical; conditions: 2 mM ATP, 15 min preincubation
T1 construct: GST (N); purchased Carna Biosciences 02-145; host or cells: insect cells (baculovirus expression system)
Method: MKNK1 Kinase High ATP Assay
MKNK1-inhibitory activity at high ATP of compounds of the present invention after their preincubation with MKNK1 was quantified employing the TR-FRET-based MKNK1 high ATP assay as described in the following paragraphs.
(§1) A recombinant fusion protein of Glutathione-S-Transferase (GST, N-terminally) and human full-length MKNK1 (amino acids 1-424 and T344D of accession number BAA 19885.1), expressed in insect cells using baculovirus expression system and purified via glutathione sepharose affinity chromatography, was purchased from Carna Biosciences (product no 02-145) and used as enzyme. As substrate for the kinase reaction the biotinylated peptide biotin-Ahx-IKKRKLTRRKSLKG (C-terminus in amide form) was used, which can be purchased e.g. from the company Biosyntan (Berlin-Buch, Germany).
(§2) For the assay 50 nL of a 100 fold concentrated solution of the test compound in DMSO was pipetted into a black low volume 384 well microtiter plate (Greiner Bio-One, Frickenhausen, Germany), 2 μL of a solution of MKNK1 in aqueous assay buffer [50 mM HEPES pH 7.5, 5 mM magnesium chloride, 1.0 mM dithiothreitol, 0.005% (v/v) Nonidet-P40 (Sigma)] was added and the mixture was incubated for 15 min at 22° C. to allow pre-binding of the test compounds to the enzyme before the start of the kinase reaction. Then the kinase reaction was started by the addition of 3 μL of a solution of adenosine-tri-phosphate (ATP, 3.3 mM=>final conc. in the 5 μL assay volume is 2 mM) and substrate (0.1 μM=>final conc. in the 5 μL assay volume is 0.06 μM) in assay buffer and the resulting mixture was incubated for a reaction time of 30 min at 22° C. The concentration of MKNK1 was adjusted depending of the activity of the enzyme lot and was chosen appropriate to have the assay in the linear range, typical concentrations were in the range of 0.003 μg/mL. The reaction was stopped by the addition of 5 μL of a solution of TR-FRET detection reagents (5 nM streptavidine-XL665 [Cisbio Bioassays, Codolet, France] and 1 nM anti-ribosomal protein S6 (pSer236)-antibody from Invitrogen [#44921G] and 1 nM LANCE EU-W1024 labeled ProteinG [Perkin-Elmer, product no. AD0071]) in an aqueous EDTA-solution (100 mM EDTA, 0.1% (w/v) bovine serum albumin in 50 mM HEPES pH 7.5).
(§3) The resulting mixture was incubated for 1 h at 22° C. to allow the formation of complex between the phosphorylated biotinylated peptide and the detection reagents. Subsequently the amount of phosphorylated substrate was evaluated by measurement of the resonance energy transfer from the Eu-chelate to the streptavidine-XL. Therefore, the fluorescence emissions at 620 nm and 665 nm after excitation at 350 nm were measured in a TR-FRET reader, e.g. a Rubystar (BMG Labtechnologies, Offenburg, Germany) or a Viewlux (Perkin-Elmer). The ratio of the emissions at 665 nm and at […] was taken as the measure for the amount of phosphorylated substrate. The data were normalised (enzyme reaction without inhibitor=0% inhibition, all other assay components but no enzyme=100% inhibition).

[2] = target: T1, MKNK1; assay: MKNK1 kinase assay (MKNK1 TR-FRET assay); type: biochemical; conditions: 10 μM ATP, 15 min preincubation
Text: MKNK1-inhibitory activity of compounds of the present invention was quantified employing the MKNK1 TR-FRET assay as described in the following paragraphs.
as §1, with “human full-lengt” for “human full-length”, “was used” for “was used,”, “e.g. form” for “e.g. from”
as §2, with “Then the kinase reaction was started by the addition of 3 μL of a solution of adenosine-tri-phosphate (ATP, 3.3 mM=>final conc. in the 5 μL assay volume is 2 mM) and substrate (0.1 μM=>final conc. in the 5 μL assay volume is 0.06 μM) in assay buffer and the resulting mixture was incubated for a reaction time of 30 min at 22° C.” left out, “[…].” for “0.003 μg/mL.”
as §3

T1 sequence (Q9BUB5 1-424 isoform Q9BUB5-2 T344D): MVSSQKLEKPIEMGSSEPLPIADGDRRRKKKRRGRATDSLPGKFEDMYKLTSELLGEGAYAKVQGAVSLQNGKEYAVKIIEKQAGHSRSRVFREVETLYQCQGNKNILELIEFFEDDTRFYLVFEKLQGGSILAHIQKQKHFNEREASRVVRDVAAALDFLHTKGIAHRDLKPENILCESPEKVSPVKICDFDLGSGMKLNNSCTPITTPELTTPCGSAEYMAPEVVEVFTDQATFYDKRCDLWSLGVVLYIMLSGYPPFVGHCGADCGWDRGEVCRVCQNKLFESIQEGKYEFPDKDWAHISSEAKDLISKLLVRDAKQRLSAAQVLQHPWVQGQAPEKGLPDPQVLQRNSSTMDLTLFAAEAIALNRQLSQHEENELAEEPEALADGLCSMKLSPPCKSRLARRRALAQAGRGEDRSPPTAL

COC[C@H]1CCCN1c1cccc2oc(-c3cnc4ccc(OCCCS(C)(=O)=NC#N)nn34)cc12 (mixture of isomers) [II-25, [{3-[(3-{4-[2-(Methoxymethyl)pyrrolidin-1-yl]-1-benzofuran-2-yl}imidazo-[1,2-b]pyridazin-6-yl)oxy]propyl}(methyl)oxido-λ^6-sulfanylidene]cyanamide]
IC50 ([1]; Table 2b): 2.7 nM
IC50 ([2]; Table 1b): 2.4 nM

c1cc2oc(-c3cnc4ccc(OC[C@H]5CCCCN5)nn34)cc2c(N2CCOCC2)n1 (stereo in doubt) [III-140, 3-[4-(morpholin-4-yl)furo[3,2-c]pyridin-2-yl]-6-(piperidin-2-ylmeth-oxy)imidazo[1,2-b]pyridazine]
IC50 ([1]; Table 2c): 183 nM
IC50 ([2]; Table 1c): 80 nM

O=C(C1CC1)N1CCC[C@H]1CCOc1ccc2ncc(-c3cc4ccccc4o3)n2n1 [Example I-1, [(2S)-2-(2-{[3-(1-Benzofuran-2-yl)imidazo[1,2-b]pyridazin-6-yl]oxy}ethyl)-pyrrolidin-1-yl](cyclopropyl)methanone]
IC50 ([1]; Table 2a): 2.3 nM
IC50 ([2]; Table 1a): 1 nM

CC(=O)N1CCC[C@H]1CCOc1ccc2ncc(-c3cc4ccccc4o3)n2n1 [Example I-2, 1-[(2S)-2-(2-{[3-(1-Benzofuran-2-yl)imidazo[1,2-b]pyridazin-6-yl]oxy}ethyl)-pyrrolidin-1-yl]ethanone]
IC50 ([1]; Table 2a): 3.1 nM
IC50 ([2]; Table 1a): 1.8 nM

O=C1NC(COc2ccc3ncc(-c4cc5ccccc5o4)n3n2)CO1 (stereo not drawn) [Example I-4, 4-({[3-(1-Benzofuran-2-yl)imidazo[1,2-b]pyridazin-6-yl]oxy}methyl)-1,3-oxazolidin-2-one]
IC50 ([1]; Table 2a): 8.8 nM
IC50 ([2]; Table 1a): 5.6 nM

O=C(N[C@H]1C[C@H](Oc2ccc3ncc(-c4cc5ccccc5o4)n3n2)C1)C1CC1 [Example I-5, N-(trans-3-{[3-(1-Benzofuran-2-yl)imidazo[1,2-b]pyridazin-6-yl]oxy}cyclobutyl)-cyclopropanecarboxamide]
IC50 ([1]; Table 2a): 8.9 nM
IC50 ([2]; Table 1a): 5.3 nM

CC(C)(C)CC(=O)N1CCC[C@H]1CCOc1ccc2ncc(-c3cc4ccccc4o3)n2n1 [Example I-6, 1-[(2S)-2-(2-{[3-(1-Benzofuran-2-yl)imidazo[1,2-b]pyridazin-6-yl]oxy}ethyl)-pyrrolidin-1-yl]-3,3-dimethylbutan-1-one]
IC50 ([1]; Table 2a): 9.2 nM
IC50 ([2]; Table 1a): 3.4 nM

O=C1CC[C@@H](COc2ccc3ncc(-c4cc5ccccc5o4)n3n2)N1 [Example I-7, (5S)-5-({[3-(1-Benzofuran-2-yl)imidazo[1,2-b]pyridazin-6-yl]oxy}methyl)-pyrrolidin-2-one]
IC50 ([1]; Table 2a): 9.2 nM
IC50 ([2]; Table 1a): 3.1 nM

O=C1CCCC(COc2ccc3ncc(-c4cc5ccccc5o4)n3n2)N1 (stereo not drawn) [Example I-8, 6-({[3-(1-Benzofuran-2-yl)imidazo[1,2-b]pyridazin-6-yl]oxy}methyl)piperidin-2-one]
IC50 ([1]; Table 2a): 9.3 nM
IC50 ([2]; Table 1a): 5.2 nM

O=C1CC[C@H](COc2ccc3ncc(-c4cc5ccccc5o4)n3n2)N1 [Example I-9, (5R)-5-({[3-(1-Benzofuran-2-yl)imidazo[1,2-b]pyridazin-6-yl]oxy}methyl)-pyrrolidin-2-one]
IC50 ([1]; Table 2a): 9.6 nM
IC50 ([2]; Table 1a): 3.3 nM

COC(=O)N1CCC[C@H]1CCOc1ccc2ncc(-c3cc4ccccc4o3)n2n1 [Example I-10, Methyl (2S)-2-(2-{[3-(1-benzofuran-2-yl)imidazo[1,2-b]pyridazin-6-yl]oxy}-ethyl)pyrrolidine-1-carboxylate]
IC50 ([1]; Table 2a): 9.9 nM
IC50 ([2]; Table 1a): 3.2 nM

CC(=O)N[C@H]1C[C@H](Oc2ccc3ncc(-c4cc5ccccc5o4)n3n2)C1 [Example I-11, N-(trans-3-{[3-(1-Benzofuran-2-yl)imidazo[1,2-b]pyridazin-6-yl]oxy}cyclobutyl)-acetamide]
IC50 ([1]; Table 2a): 10 nM
IC50 ([2]; Table 1a): 2.9 nM

COc1cccc2oc(-c3cnc4ccc(OCCN5CCNC5=O)nn34)cc12 [Example I-12, 1-(2-{[3-(4-methoxy-1-benzofuran-2-yl)imidazo[1,2-b]pyridazin-6-yl]oxy}ethyl)-imidazolidin-2-one]
IC50 ([1]; Table 2a): 10.2 nM
IC50 ([2]; Table 1a): 3.5 nM

COc1ccc2oc(-c3cnc4ccc(OC[C@@H]5CCC(=O)N5)nn34)cc2c1 [Example I-13, (5S)-5-({[3-(5-methoxy-1-benzofuran-2-yl)imidazo[1,2-b]pyridazin-6-yl]oxy}methyl)pyrrolidin-2-one]
IC50 ([1]; Table 2a): 10.7 nM
IC50 ([2]; Table 1a): 3.7 nM

CC(C)(C)CC(=O)N1CCOC(COc2ccc3ncc(-c4cc5ccccc5o4)n3n2)C1 (stereo not drawn) [Example I-14, 1-[2-({[3-(1-Benzofuran-2-yl)imidazo[1,2-b]pyridazin-6-yl]oxy}methyl)-morpholin-4-yl]-3,3-dimethylbutan-1-one]
IC50 ([1]; Table 2a): 10.9 nM
IC50 ([2]; Table 1a): 5.1 nM

O=C(NCCOc1ccc2ncc(-c3cc4ccccc4o3)n2n1)C1CC1 [Example I-15, N-(2-{[3-(1-Benzofuran-2-yl)imidazo[1,2-b]pyridazin-6-yl]oxy}ethyl)-cyclopropanecarboxamide]
IC50 ([1]; Table 2a): 12.5 nM
IC50 ([2]; Table 1a): 5.6 nM

O=C(c1ccccc1)N1CCOC(COc2ccc3ncc(-c4cc5ccccc5o4)n3n2)C1 (stereo not drawn) [Example I-16, [2-({[3-(1-benzofuran-2-yl)imidazo[1,2-b]pyridazin-6-yl]oxy}methyl)morpholin-4-yl](phenyl)methanone]
IC50 ([1]; Table 2a): 13.3 nM
IC50 ([2]; Table 1a): 4.7 nM

CC(C)(C)CC(=O)NCCOc1ccc2ncc(-c3cc4ccccc4o3)n2n1 [Example I-17, N-(2-{[3-(1-Benzofuran-2-yl)imidazo[1,2-b]pyridazin-6-yl]oxy}ethyl)-3,3-dimethylbutanamide]
IC50 ([1]; Table 2a): 13.7 nM
IC50 ([2]; Table 1a): 4.6 nM

C[C@@H]1CNCCN1c1cccc2oc(-c3cnc4ccc(OC[C@@H]5CCC(=O)N5)nn34)cc12 [II-62, (5S)-5-{[(3-{4-[(2R)-2-methylpiperazin-1-yl]-1-benzofuran-2-yl}imidazo[1,2-b]pyridazin-6-yl)oxy]methyl}pyrrolidin-2-one]
IC50 ([2]; Table 1b): 5.1 nM

C[C@@H]1CNCCN1c1cccc2oc(-c3cnc4ccc(OCC(F)(F)F)nn34)cc12 [II-64, 3-{4-[(2R)-2-methylpiperazin-1-yl]-1-benzofuran-2-yl}-6-(2,2,2-trifluoroethoxy)im-idazo[1,2-b]pyridazine]
IC50 ([2]; Table 1b): 9.3 nM

CC1(C)CN(c2cccc3oc(-c4cnc5ccc(O[C@H]6C[C@H](N)C6)nn45)cc23)CCO1 [II-66, trans-3-({3-[4-(2,2-dimethylmorpholin-4-yl)-1-benzofuran-2-yl]imidazo[1,2-b]pyridazin-6-yl}oxy)cyclobutanamine]
IC50 ([2]; Table 1b): 27.3 nM
